{
  "source": "patent US20120269739A1",
  "about": "“COMPOSITION, USE, AND PRESERVATION METHOD” (L'OREAL, priority 2009, published 2012)",
  "key": {"[1]": {"tested_on": "Candida albicans (ATCC 10231)", "assay": "Action kinetics in broth", "type": "cell-based", "settings": "Sabouraud broth pH 5.2±0.3, 35° C., gingerone 2%, sodium benzoate 3.3%, chlorhexidine digluconate 2.2%", "method": "(§1) The object of this example is to distinguish a compound according to the invention (gingerone) from the preserving agents conventionally used for protecting cosmetic formulations against microbial contamination, as regards the action kinetics.\n(§2) The solutions are prepared in Trypto-casein-soya (TS) broth for the bacteria and in Sabouraud broth for the yeast. These solutions are adjusted to pH 5.2±0.3.\n(§3) For each microbial solution, a growth control consisting of the appropriate culture medium alone is prepared.\nThe solutions in Sabouraud broth (36 ml) are inoculated with the yeast (4 ml of suspension) to a final content of 10^6 cfu/ml.\n(§4) The inoculated samples are then placed in an incubator-agitator at 35° C.±2° C. Samples are taken after 6 hours, 24 hours, 48 hours, 72 hours and 7 days. Decimal dilutions are then prepared in Eugon LT100 broth. These dilutions are left for 30 minutes±15 minutes at 25° C. in order to neutralize the preserving agents, and are then double-seeded on the surface of Petri dishes containing Eugon LT100 agar.\n(§5) The Petri dishes are then incubated in an oven at 35° C.±2° C. for a variable time depending on the strain concerned: • 48 hours; S. aureus; • 5 days: E. faecalis and C. albicans.\n(§6) The results are expressed for each solution, each strain and each contact time as the number of cfu/ml of stock solution."}, "[2]": {"tested_on": "Staphylococcus aureus (ATCC 6538)", "assay": "Action kinetics in broth", "type": "cell-based", "settings": "TS broth pH 5.2±0.3, 35° C., gingerone 2%, sodium benzoate 3.3%, chlorhexidine digluconate 2.2%", "method": "as §1, §2, §3\n(§7) The solutions in TS broth (36 ml) are inoculated separately with each of the bacteria (4 ml of microbial suspension) to a final content of 10^6 cfu/ml of mixture.\nas §4, §5, §6"}, "[3]": {"tested_on": "Enterococcus faecalis (ATCC 33186)", "assay": "Action kinetics in broth", "type": "cell-based", "settings": "TS broth pH 5.2±0.3, 35° C., gingerone 2%, sodium benzoate 3.3%, chlorhexidine digluconate 2.2%", "method": "as §1, §2, §3, §7, §4, §5, §6"}, "[4]": {"tested_on": "Enterococcus faecalis (Ef) ATCC 33186", "assay": "Challenge Test (artificial contamination) of cosmetic formula", "type": "cell-based", "settings": "22° C., chlorhexidine digluconate 0.3%, gingerone 2%", "text": "(§8) 5 pure microorganism cultures are used."}, "[5]": {"tested_on": "Escherichia coli (Ec) ATCC 8739", "assay": "Challenge Test (artificial contamination) of cosmetic formula", "type": "cell-based", "settings": "22° C., chlorhexidine digluconate 0.3%, gingerone 2%", "text": "as §8"}, "[6]": {"tested_on": "Candida albicans (Ca) ATCC 10231", "assay": "Challenge Test (artificial contamination) of cosmetic formula", "type": "cell-based", "settings": "22° C., chlorhexidine digluconate 0.3%, gingerone 2%; for Log reduction number after 7 days of contact, relative to the control, Candida albicans: Amt weight %: sodium benzoate 0.6%", "text": "as §8"}, "[7]": {"tested_on": "Aspergillus niger (An) ATCC 6275", "assay": "Challenge Test (artificial contamination) of cosmetic formula", "type": "cell-based", "settings": "22° C., chlorhexidine digluconate 0.3%, gingerone 2%", "text": "as §8"}, "[8]": {"tested_on": "collection microbial strains (bacteria, yeasts and moulds)", "assay": "Challenge Test, overall finding over strains and formulas", "type": "cell-based", "settings": "three formulas, five strains, gingerone 2%"}, "[9]": {"tested_on": "Pseudomonas aeruginosa (Pa) ATCC 19429", "assay": "Challenge Test (artificial contamination) of cosmetic formula", "settings": "22° C., chlorhexidine digluconate 0.3%, gingerone 2%", "procedure": "The antimicrobial efficacy of a compound of formula (I) was evaluated via the Challenge Test or artificial contamination method.\nThe method of the challenge test consists of an artificial contamination of the sample with collection microbial strains (bacteria, yeasts and moulds) and evaluation of the number of revivable microorganisms seven days after the inoculation.\nThe gram-negative bacteria (Escherichia coli and Pseudomonas aeruginosa), gram-positive bacteria (Enterococcus faecalis), yeast (Candida albicans) and mould (Aspergillus niger) are seeded in the subculturing medium, respectively, the day before the inoculation for the bacteria and the yeast, and five days before the inoculation for the mould.\nAfter homogenizing the microbial suspension, 0.2 ml of inoculum is introduced into each pill bottle (the suspensions are used pure: between 1×10^8 and 3×10^8 cfu per ml) and the microbial suspension in the 20 g of product (=cosmetic formula) is homogenized thoroughly using a spatula.\nThe content of microorganisms present in the product corresponds after homogenization to a concentration of 10^6 microorganisms per gram of product, i.e. inoculation to 1% of an inoculum containing 10^8 microorganisms per ml.\nAfter 7 days of contact time between the microorganisms and the product at 22° C.±2° C. and in darkness, decimal dilutions are performed and the number of revivable microorganisms remaining in the product is counted."}, "bacteria and yeast": {"tested_on": "bacteria and yeast", "assay": "Action kinetics, overall conclusion", "type": "cell-based", "settings": "gingerone 2%; in particular on the bacteria", "method": "as §1, §4"}, "[10]": {"settings": "1st formula O/W emulsion, Amt weight %: phenoxyethanol 1%, sodium benzoate 0.6%"}, "[11]": {"settings": "2nd formula lotion (pH 7 ± 0.2), Amt weight %: sodium benzoate 0.6%, phenoxyethanol 1%"}, "[12]": {"settings": "3rd formula O/W emulsion, Amt weight %: sodium benzoate 0.6%"}},
  "data": [
    {"smiles": "COc1cc(CCC(C)=O)ccc1O", "note": "[Gingerone, gingerone]", "values": [
      {"measurement": "Number of cfu counted after strain/solution contact time, Candida albicans", "setting": "[1]; contact time 0 hours", "result": "2.9 × 10^6 cfu/ml"},
      {"measurement": "Number of cfu counted after strain/solution contact time, Candida albicans", "setting": "[1]; contact time 6 hours", "result": "2.9 × 10^2 cfu/ml"},
      {"measurement": "Number of cfu counted after strain/solution contact time, Candida albicans", "setting": "[1]; contact time 24 hours", "result": "<10", "unit": "cfu/ml"},
      {"measurement": "Number of cfu counted after strain/solution contact time, Candida albicans", "setting": "[1]; contact time 48 hours", "result": "<10", "unit": "cfu/ml"},
      {"measurement": "Number of cfu counted after strain/solution contact time, Candida albicans", "setting": "[1]; contact time 72 hours", "result": "<10", "unit": "cfu/ml"},
      {"measurement": "Number of cfu counted after strain/solution contact time, Candida albicans", "setting": "[1]; contact time 168 hours", "result": "<10", "unit": "cfu/ml"},
      {"measurement": "Number of cfu counted after strain/solution contact time, Staphylococcus aureus", "setting": "[2]; contact time 0 hours, first series", "result": "1.7 × 10^6 cfu/ml"},
      {"measurement": "Number of cfu counted after strain/solution contact time, Staphylococcus aureus", "setting": "[2]; contact time 0 hours, second series of Table 1", "result": "2.5 × 10^6 cfu/ml"},
      {"measurement": "Number of cfu counted after strain/solution contact time, Staphylococcus aureus", "setting": "[2]; contact time 6 hours, first series", "result": "1.2 × 10^6 cfu/ml"},
      {"measurement": "Number of cfu counted after strain/solution contact time, Staphylococcus aureus", "setting": "[2]; contact time 6 hours, second series of Table 1", "result": "1.2 × 10^6 cfu/ml"},
      {"measurement": "Number of cfu counted after strain/solution contact time, Staphylococcus aureus", "setting": "[2]; contact time 24 hours, first series", "result": "1.7 × 10^5 cfu/ml"},
      {"measurement": "Number of cfu counted after strain/solution contact time, Staphylococcus aureus", "setting": "[2]; contact time 24 hours, second series of Table 1", "result": "1.6 × 10^5 cfu/ml"},
      {"measurement": "Number of cfu counted after strain/solution contact time, Staphylococcus aureus", "setting": "[2]; contact time 48 hours, first series", "result": "8.1 × 10^3 cfu/ml"},
      {"measurement": "Number of cfu counted after strain/solution contact time, Staphylococcus aureus", "setting": "[2]; contact time 48 hours, second series of Table 1", "result": "9.6 × 10^3 cfu/ml"},
      {"measurement": "Number of cfu counted after strain/solution contact time, Staphylococcus aureus", "setting": "[2]; contact time 72 hours, first series", "result": 40, "unit": "cfu/ml"},
      {"measurement": "Number of cfu counted after strain/solution contact time, Staphylococcus aureus", "setting": "[2]; contact time 72 hours, second series of Table 1", "result": "1.3 × 10^2 cfu/ml"},
      {"measurement": "Number of cfu counted after strain/solution contact time, Staphylococcus aureus", "setting": "[2]; contact time 168 hours, first series", "result": "<100", "unit": "cfu/ml"},
      {"measurement": "Number of cfu counted after strain/solution contact time, Staphylococcus aureus", "setting": "[2]; contact time 168 hours, second series of Table 1", "result": "<10", "unit": "cfu/ml"},
      {"measurement": "Number of cfu counted after strain/solution contact time, Enterococcus faecalis", "setting": "[3]; contact time 0 hours", "result": "2.5 × 10^6 cfu/ml"},
      {"measurement": "Number of cfu counted after strain/solution contact time, Enterococcus faecalis", "setting": "[3]; contact time 6 hours", "result": "4.4 × 10^5 cfu/ml"},
      {"measurement": "Number of cfu counted after strain/solution contact time, Enterococcus faecalis", "setting": "[3]; contact time 24 hours", "result": "1.2 × 10^4 cfu/ml"},
      {"measurement": "Number of cfu counted after strain/solution contact time, Enterococcus faecalis", "setting": "[3]; contact time 48 hours", "result": "6.3 × 10^2 cfu/ml"},
      {"measurement": "Number of cfu counted after strain/solution contact time, Enterococcus faecalis", "setting": "[3]; contact time 72 hours", "result": 80, "unit": "cfu/ml"},
      {"measurement": "Number of cfu counted after strain/solution contact time, Enterococcus faecalis", "setting": "[3]; contact time 168 hours", "result": "<10", "unit": "cfu/ml"},
      {"measurement": "Log reduction number after 7 days of contact, relative to the control, E. faecalis", "setting": "[4]; [10]", "result": ">4", "unit": "Log"},
      {"measurement": "Log reduction number after 7 days of contact, relative to the control, E. faecalis", "setting": "[4]; [11]", "result": ">0.5", "unit": "Log"},
      {"measurement": "Log reduction number after 7 days of contact, relative to the control, E. faecalis", "setting": "[4]; [12]", "result": ">4", "unit": "Log"},
      {"measurement": "Log reduction number after 7 days of contact, relative to the control, E. coli", "setting": "[5]; [10]", "result": ">4", "unit": "Log"},
      {"measurement": "Log reduction number after 7 days of contact, relative to the control, E. coli", "setting": "[5]; [11]", "result": ">4", "unit": "Log"},
      {"measurement": "Log reduction number after 7 days of contact, relative to the control, E. coli", "setting": "[5]; [12]", "result": ">4", "unit": "Log"},
      {"measurement": "Log reduction number after 7 days of contact, relative to the control, C. albicans", "setting": "[6]; [10]", "result": ">4", "unit": "Log"},
      {"measurement": "Log reduction number after 7 days of contact, relative to the control, Candida albicans", "setting": "[6]; 2nd formula lotion (pH 7 ± 0.2), phenoxyethanol 1%", "result": ">3", "unit": "Log"},
      {"measurement": "Log reduction number after 7 days of contact, relative to the control, Candida albicans", "setting": "[6]; 3rd formula O/W emulsion", "result": ">4", "unit": "Log"},
      {"measurement": "Log reduction number after 7 days of contact, relative to the control, A. niger", "setting": "[7]; [10]", "result": ">4", "unit": "Log"},
      {"measurement": "Log reduction number after 7 days of contact, relative to the control, A. niger", "setting": "[7]; [11]", "result": ">4", "unit": "Log"},
      {"measurement": "Log reduction number after 7 days of contact, relative to the control, A. niger", "setting": "[7]; [12]", "result": 0.6, "unit": "Log"},
      {"measurement": "antimicrobial efficacy across strains and formulatory supports", "setting": "[8]", "result": "efficient irrespective of the strain and of the support"},
      {"measurement": "Log reduction number after 7 days of contact, relative to the control, P. aeruginosa", "setting": "[9]; [10]", "result": ">4", "unit": "Log"},
      {"measurement": "Log reduction number after 7 days of contact, relative to the control, P. aeruginosa", "setting": "[9]; [11]", "result": ">3", "unit": "Log"},
      {"measurement": "Log reduction number after 7 days of contact, relative to the control, P. aeruginosa", "setting": "[9]; [12]", "result": ">4", "unit": "Log"},
      {"measurement": "action kinetics in comparison with conventional preserving agents", "setting": "bacteria and yeast", "result": "much more slowly"}
    ]}
  ]
}
